# Source: publication PMC5117811 (Nature chemical biology, 2016)
# Legend:
# BRD4(1) [1] = molecular target: T1, BRD4(1) (Homo sapiens, UniProt O60885); experiment: BRD4; assay type: binding; settings: BRD4(1) AlphaScreen, compared to JQ1
# [2] = molecular target: BRD4 (full-length, short-iso.) (Homo sapiens, UniProt O60885); experiment: BROMOscan
# BRD4(1,2) = BRD4(1,2) (Homo sapiens, UniProt O60885); experiment: BROMOscan
# BRD4(1) [3] = molecular target: T1, BRD4(1); experiment: BROMOscan
# BRD4 = BRD4 (Homo sapiens, UniProt O60885); experiment: Immunoblot for BRD4 protein level in MV4; assay type: cell-based; settings: MV4;11 cells
# HEXIM1 = experiment: Immunoblot for HEXIM1 in MV4; assay type: cell-based, human; settings: MV4;11 cells, 10 nM, later time points (4–24 hours)
# MYC = experiment: Immunoblot for MYC in MV4; assay type: cell-based, human; settings: MV4;11 cells
# BRD4(2) = BRD4(2) (Homo sapiens, UniProt O60885); experiment: BROMOscan
# [4] = Plasma pharmacokinetic analyses in CD1 mice; settings: 50 mg/kg intraperitoneally
smiles,measurement,setting,value
"COC(=O)C[C@@H]1N=C(c2ccc(Cl)cc2)c2c(sc(C(=O)NCCOCCNC(=O)c3sc4c(c3C)C(c3ccc(Cl)cc3)=N[C@@H](CC(=O)OC)c3nnc(C)n3-4)c2C)-n2c(C)nnc21 [(2S+2S)-PEG1, Dimethyl 2,2'-((6S,6'S)-(((oxybis(ethane-2,1-diyl))bis(azanediyl))bis(carbonyl))bis(4-(4-chlorophenyl)-3,9-dimethyl-6H-thieno[3,2-f][1,2,4]triazolo[4,3-a][1,4]diazepine-2,6-diyl))diacetate]",increase in biochemical potency,BRD4(1) [1],20 fold
"COC(=O)C[C@@H]1N=C(c2ccc(Cl)cc2)c2c(sc(C(=O)NCCOCCNC(=O)C[C@@H]3N=C(c4ccc(Cl)cc4)c4c(sc(C)c4C)-n4c(C)nnc43)c2C)-n2c(C)nnc21 [(6S+2S)-PEG1, Methyl 2-((S)-4-(4-chlorophenyl)-2-((2-(2-(2-((S)-4-(4-chlorophenyl)-2,3,9-trimethyl-6H-thieno[3,2-f][1,2,4]triazolo[4,3-a][1,4]diazepin-6-yl)acetamido)ethoxy)ethyl)carbamoyl)-3,9-dimethyl-6H-thieno[3,2-f][1,2,4]triazolo[4,3-a][1,4]diazepin-6-yl)acetate]",displacement of phage expressing full length protein BRD4(full),[2],picomolar
same,"displacement of phage expressing tandem bromodomain construct BRD4(1,2)","BRD4(1,2)",picomolar
same,displacement of phage expressing BRD4(1),BRD4(1) [3],picomolar
same,effect on BRD4 protein stability (degradation),BRD4,No effect on protein stability
same,HEXIM1 expression,HEXIM1,upregulation
same,time of maximum effect on MYC,MYC; 10 nM,2 h
same,lowest concentration at which MYC was downregulated,MYC; two hours of treatment,10 nM
same,displacement of phage expressing BRD4(2),BRD4(2),picomolar
"COC(=O)C[C@@H]1N=C(c2ccc(Cl)cc2)c2c(sc(C(=O)NCCNC(=O)C[C@@H]3N=C(c4ccc(Cl)cc4)c4c(sc(C)c4C)-n4c(C)nnc43)c2C)-n2c(C)nnc21 [(6S+2S)-PEG0, Methyl 2-((S)-4-(4-chlorophenyl)-2-((2-(2-((S)-4-(4-chlorophenyl)-2,3,9-trimethyl-6H-thieno[3,2-f][1,2,4]triazolo[4,3-a][1,4]diazepin-6-yl)acetamido)ethyl)carbamoyl)-3,9-dimethyl-6H-thieno[3,2-f][1,2,4]triazolo[4,3-a][1,4]diazepin-6-yl)acetate]",PK properties,[4],comparable PK properties to MT1
